Molecular target: histidine-tagged recombinant human TrkA, cytoplasmic domain (Homo sapiens (Human), UniProt P04629)
Assay: TrkA ELISA Assay
Type: biochemical
Settings: 2.5 nM TrkA, 500 μM ATP, 25 minutes; read-out: TrkA Elisa Enzyme IC50
How it was run: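 2.5 nM enzyme with 500 μM ATP on poly(Glu,Ala,Tyr 6:3:1)-coated plates, 25 min at ambient temperature in 25 mM MOPS pH 7.5, 5 mM MgCl2, 0.005% Triton X-100. Phosphotyrosine detected by HRP-PY20 antibody, TMB, A450; IC50 from 4- or 5-parameter logistic fit.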

Sequence of histidine-tagged recombinant human TrkA, cytoplasmic domain (P04629 440-796): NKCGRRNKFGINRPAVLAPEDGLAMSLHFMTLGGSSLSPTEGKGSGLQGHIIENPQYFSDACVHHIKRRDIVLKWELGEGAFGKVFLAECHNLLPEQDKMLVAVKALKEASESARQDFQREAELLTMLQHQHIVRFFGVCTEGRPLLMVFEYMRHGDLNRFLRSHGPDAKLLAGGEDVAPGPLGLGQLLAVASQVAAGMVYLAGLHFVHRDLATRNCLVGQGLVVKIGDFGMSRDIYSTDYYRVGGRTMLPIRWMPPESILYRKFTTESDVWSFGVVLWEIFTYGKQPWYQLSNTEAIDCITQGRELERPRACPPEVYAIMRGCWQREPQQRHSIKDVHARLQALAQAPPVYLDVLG

Row | Structure (SMILES) | IC50
1 | O=C(Nc1cnn2ccc(N3CCC[C@@H]3c3cc(F)ccc3Cl)nc12)N1CCC[C@@H](O)C1 [Example 43, (R)—N-(5-((R)-2-(2-chloro-5-fluorophenyl)pyrrolidin-1-yl)pyrazolo[1,5-a]pyrimidin-3-yl)-3-hydroxypiperidine-1-carboxamide] | 11.7 nM
2 | O=C(Nc1cnn2ccc(N3CCC[C@@H]3c3cc(F)ccc3Cl)nc12)N1CC(O)C1 [Example 8, (R)—N-(5-(2-(2-chloro-5-fluorophenyl)pyrrolidin-1-yl)pyrazolo[1,5-a]pyrimidin-3-yl)-3-hydroxyazetidine-1-carboxamide] | 13.7 nM
3 | O=C(Nc1cnn2ccc(N3CCC[C@@H]3c3cc(F)ccc3Cl)nc12)N1CC[C@@H](O)C1 [Example 41, (R)—N-(5-((R)-2-(2-chloro-5-fluorophenyl)pyrrolidin-1-yl)pyrazolo[1,5-a]pyrimidin-3-yl)-3-hydroxypyrrolidine-1-carboxamide] | 4.1 nM
4 | O=C(Nc1cnn2ccc(N3CCC[C@@H]3c3cccc(F)c3)nc12)c1ccccn1 [Example 68, (R)—N-(5-(2-(3-fluorophenyl)pyrrolidin-1-yl)pyrazolo[1,5-a]pyrimidin-3-yl)picolinamide] | 4 nM
5 | O=C(Nc1cnn2ccc(N3CCC[C@@H]3c3cc(F)ccc3F)nc12)C(=O)N1CC[C@H](O)C1 [Example 102, N-(5-((R)-2-(2,5-difluorophenyl)pyrrolidin-1-yl)pyrazolo[1,5-a]pyrimidin-3-yl)-2-((S)-3-hydroxypyrrolidin-1-yl)-2-oxoacetamide] | 12.8 nM
6 | CC(C)(C)OC(=O)N1CCC(C)(C(=O)Nc2cnn3ccc(N4CCC[C@@H]4c4cc(F)ccc4Cl)nc23)CC1 [Example 48, (R)-tert-butyl 4-(5-(2-(2-chloro-5-fluorophenyl)pyrrolidin-1-yl)pyrazolo[1,5-a]pyrimidin-3-ylcarbamoyl)-4-methylpiperidine-1-carboxylate] | 15.3 nM
7 | CN1CCN(C(=O)Nc2cnn3ccc(N4CCC[C@@H]4c4cc(F)ccc4F)nc23)CC1 [Example 28, (R)—N-(5-(2-(2,5-difluorophenyl)pyrrolidin-1-yl)pyrazolo[1,5-a]pyrimidin-3-yl)-4-methylpiperazine-1-carboxamide] | 57.4 nM
8 | CC(C)N1CCN(C(=O)Nc2cnn3ccc(N4CCC[C@@H]4c4cc(F)ccc4F)nc23)CC1 [Example 26, (R)—N-(5-(2-(2,5-difluorophenyl)pyrrolidin-1-yl)pyrazolo[1,5-a]pyrimidin-3-yl)-4-isopropylpiperazine-1-carboxamide] | 45 nM
9 | Cc1cccnc1C(=O)Nc1cnn2ccc(N3CCC[C@@H]3c3cccc(F)c3)nc12 [Example 69, (R)—N-(5-(2-(3-fluorophenyl)pyrrolidin-1-yl)pyrazolo[1,5-a]pyrimidin-3-yl)-3-methylpicolinamide] | 6.2 nM
